The source of these data is patent US20210230300A1, “INHIBITORS OF SHP2” (Bayer Aktiengesellschaft, priority 2018, published 2021).

Structures are written as SMILES. “Also recorded” adds a separate entry of the source. Marks after values point to notes of the source that are not given here.

Data set [1] can be described thus: log D. The class given is physicochemical.
Data set [2] has as its system Mouse 3 day unilateral ureter obstruction (UUO) model. Kind of data set: Mouse 3 day unilateral ureter obstruction (UUO) model, macrophage infiltration by flow cytometry (CD45, F4/80). The class given is in vivo. Conditions: 3 day UUO. The protocol: As a placebo, a solution without active ingredient was used (group 2), and a sham operated group with unligated kidney was used as a positive control (group 1)
The infiltration of macrophages in response to the renal injury was measured in a flow cytometry assay with detection antibodies binding to the pan-leukocyte marker CD45, as well as to the macrophage-specific antigen, F4/80.

The subject of data set [3] is Mouse 10 day unilateral ureter obstruction (UUO) model. Kind of data set: Mouse 10 day UUO model, renal mRNA expression of fibrotic markers (TaqMan real time PCR). The class given is in vivo. The following applies: for Col1α1 mRNA expression, percentage vs. placebo / Col3α1 mRNA expression, percentage vs. placebo / Col4α1 mRNA expression, percentage vs. placebo / αSMA mRNA expression, percentage vs. placebo: kidney. As to the method: (§1) The study was performed on male C57/B16J mice (age: 7-8 weeks) that were obtained from Charles River. Mice were anesthetized with continuous inhaled isoflurane, and the left ureter was exposed via a mid-abdominal incision. The mid-ureter was obstructed by two point ligation with silk sutures. The SHAM-operated mouse (n=6) underwent the same procedure except for the obstruction of the left ureter.
(§2) The mice were randomized into four groups (n=10 each group): UUO plus vehicle (10% EtOH/40% PEG/50% water), UUO plus 3 [mg/kg] […] SHP099. Mice were dosed bidaily with vehicle and SHP099. The forth group of mice with UUO was treated once daily with Tivozanib (technical control). At ten days after surgery, mice were euthanized, and kidneys were collected and divided in two parts.
(§3) One part was snap-frozen in liquid nitrogen for RNA analysis. The other part was stored in Davidson's fixative for the preparation of histological sections. Total RNA was isolated from parts of harvested kidneys. Kidney tissue was homogenized and RNA was obtained and transcribed to cDNA. Using TaqMan real time PCR renal mRNA expression of fibrotic markers was analyzed in kidney tissues. For the assessment of fibrosis on the protein level paraffin tissue sections were stained with alpha-smooth muscle actin (αSMA) and Sirius Red/Fast Green Collagen Stainings using standard procedures.
(§4) All data are expressed as means±S.D. Differences between groups were analyzed by one-way ANOVA with Dunnett's corrections for multiple comparisons. Statistical significance was defined as p<0.05.
(§5) After 10 days, the weight of the kidneys was measured, and RNA-markers αSMA, Col1α1, Col3α1, Col4α1 were measured with RT PCR. Further, histological measurements of αSMA (Alpha smooth muscle actin) and Collagen (SR/FG) were carried out.

Data set [4] shares this test system. The data set is described as follows: Mouse 10 day UUO model, histology (αSMA and Sirius Red/Fast Green collagen staining). The class given is in vivo. The protocol: as §1, §2, §3
Quantitative measurements of alpha-smooth muscle actin (αSMA)-positive as well as Sirius Red (Collagen) positive areas within the kidneys were obtained by computer image analysis using the Axio Scan Z1 (Zeiss) microscope and the Zen software.
as §4, §5

The subject of data set [5] is mouse renal ischemia reperfusion injury (IRI) model. The data set is described as follows: Mouse uninephrectomy/renal ischemia reperfusion injury (uIRI) model. The class given is in vivo. The following applies: 30 [mg/kg] SHP099 p.o. BID. As to the method: Experiments indicative for acute kidney diseases were carried out in a uninephrectomy/renal ischemia reperfusion injury (uIRI) model (example 3), as e.g. disclosed in Skrypnyk et al (2013).
In a mouse renal ischemia reperfusion injury (IRI) model, uninephrectomy (UNX) with unilateral renal ischemia (RI), was carried out. Therein, one kidney is removed and the remaining kidney undergoes ischemia/reprefusion via renal artery claming, Animals were then treated according to the following groups: […]

Setting [6] is: SHP099 3 and 30 mg/kg bidaily, result in words.
Where [7] appears, read: Tivozanib once daily (technical control).

Regarding `CC1(N)CCN(c2cnc(-c3cccc(Cl)c3Cl)c(N)n2)CC1` [SHP099], in data set [1], the “log D” value is reported as 1.7. The macrophage infiltration result in data set [2] (100 mg/kg SHP099 BID p.o.) is listed as “significant, dose-dependent reduction”. Moreover, in data set [3] (setting [6]), the “collagen RNA expression in kidney (Collagen 1a1, 3a1, 4a1)” value was “strong and very significant reduction; also recorded: dose-dependent reduction”; the “αSMA RNA expression in kidney” value is “strong and very significant reduction; also recorded: dose-dependent reduction”. Moreover, in data set [3] (3 [mg/kg] SHP099 bidaily), the “Col1α1 mRNA expression, percentage vs. placebo” value is given as 77%; the “Col3α1 mRNA expression, percentage vs. placebo” value was 82%; the “Col4α1 mRNA expression, percentage vs. placebo” value is reported as 85%; the “αSMA mRNA expression, percentage vs. placebo” value was 81%. For the same compound, in data set [3] (30 [mg/kg] SHP099 bidaily), the “Col1α1 mRNA expression, percentage vs. placebo” value was 51%; the “Col3α1 mRNA expression, percentage vs. placebo” value is on record as 54%; the “Col4α1 mRNA expression, percentage vs. placebo” value came out at 56%; the “αSMA mRNA expression, percentage vs. placebo” value turned out to be 47%. Further, the “αSMA-positive area within the obstructed kidney” value in data set [4] (3 [mg/kg] SHP099 bidaily) is “significant reduction”. Moreover, the “collagen deposition in kidneys” value in data set [4] (SHP099 treated, compared to untreated or Tivozanib treated mice, dose not stated) is “strong and significant reduction”. Further, the “aSMA-positive area in kidneys” value in data set [4] (SHP099 treated, dose not stated) was “strong and significant reduction”. Moreover, the “Collagen content (SR/FG staining)” value in data set [4] (both dosages of SHP099 (3 and 30 mg/kg bidaily)) was “dose dependently and significantly reduced”. Further, in data set [5], the “podocyte marker NHPS1 expression” value is “reproducible and strong effects”; the serum creatinine result was “robust reduction”; the serum urea result is on record as “mild reduction”.
For `COc1cc2nccc(Oc3ccc(NC(=O)Nc4cc(C)on4)c(Cl)c3)c2cc1OC` [Tivozanib], in data set [2] (3 mg/kg Tivozanib QD p.o., in comparison with SHP099), the macrophage infiltration result is “weaker effects”. Besides, in data set [3] (setting [7]), the “Col1α1 mRNA expression, percentage vs. placebo” value is given as 62%; the “Col3α1 mRNA expression, percentage vs. placebo” value is listed as 76%; the “Col4α1 mRNA expression, percentage vs. placebo” value worked out at 71%; the “αSMA mRNA expression, percentage vs. placebo” value was 64* %. In addition, in data set [4] (setting [7]), the “Collagen content (SR/FG staining)” value was “significantly reduced” and the “αSMA-positive area within the obstructed kidney” value was “significantly reduced”.
